Results: patent EP4585588A1, “BENZIMIDAZOLE COMPOUND, AND PREPARATION METHOD THEREFOR AND USE THEREOF” (Suzhou Pharmavan Co., Ltd., priority 2022, dated 2024)

Assays:
[1] = tested on: Primary cardiomyocytes of suckling rats; assay: Area measurement of cardiomyocytes after PE injury; type: cell-based; conditions: for Cell Area Hypertrophy Multiple (Mean±Standard Deviation) Compared with Control Wells: 48 h, 10 µM; for cardiomyocyte area compared with the PE group (result in words): 10 µM compound, PE 20 µM for 48 hours
Experimental: Primary cardiomyocytes of suckling rats were isolated and cultured and inoculated on a cell culture plate. A drug stock solution was taken and separately added to cell wells according to a certain dilution ratio, and a final concentration was 10 µM. After half hour of drug action, a phenylephrine (PE) stock solution was added, and a final concentration of PE was 20 µM. After 48 hours of PE action, cell samples were collected for real-time quantitative PCR assay or cell area measurement.
Separation and plating of cardiomyocytes of rats: a certain number of SPF suckling rats were taken and placed in a clean bench according to an actual requirement for the number of cells, thoracic cavities were opened by scissors, hearts were separated, and the hearts were cut into tissue fragments with sterilized surgical scissors; Collagenase Type II (manufacturer: Sigma, article No.: C2-28-100MG) was added to a D-HANKS balanced salt buffer to prepare a […] enzyme digestion solution, and the tissue fragments of hearts were continuously digested for three times in a 37 °C constant-temperature water bath box; about 2 mL of the enzyme digestion solution was added for the first time, a supernatant was discarded after digestion, centrifugation and precipitation of cardiomyocytes and tissue fragments, about 4 mL of the enzyme digestion solution was independently added for the second time and the third time to continue digestion, a supernatant was remained each time, DMEM containing 10% FBS with the same volume as the digestion solution in the supernatant was immediately added to neutralize digestive enzymes, the supernatants for the second time and the third time were combined and centrifuged, a supernatant was discarded, an appropriate amount of DMEM containing 10% FBS was added to resuspend the cardiomyocytes, the cardiomyocytes were inoculated in a 100 mm culture plate and subjected to differential adhesion in a constant-temperature cell incubator for 2 h, and a supernatant was taken for cell count.
Area measurement of cardiomyocytes of rats: a 24-well plate precoated with 1% gelatin was taken and plated at 1.0×10^3 cells/well, 500 µL of a 10% FBS+DMEM medium was contained in each well, and cells were cultured in a 37 °C constant-temperature cell incubator for 24 h; different compounds were independently prepared into a 100 mM mother liquor with DMSO and gradient diluted with a 10% FBS+DMEM medium to prepare a 10 µM final solution of the compound containing […]; the medium in the 24-well plate was discarded and replaced with a 500 µL/well medium containing a 10 µM compound, and three replicate wells and a negative control well were set for each compound; after 0.5 hours of drug action, PE (manufacturer: Meilun Biotechnology; article No.: MB1602) with a final concentration of 20 µM was added to each well, and no PE was added to the negative control wells; after 48 hours of PE action, at least five fields of view were randomly selected from each well under an inverted microscope (manufacturer: Nikon; model: Eclipse TS100), and the cell area data was calculated by Image J software; the area of the cells in the negative control wells was set to 1, the cell area hypertrophy multiples of the PE wells and each administration well were calculated separately, and statistical analysis was performed using the One-Way ANOVA method.
The cardiomyocyte area was directly measured and the differences between the groups were compared for verification. The cardiomyocytes were co-intervened with PE and drugs and placed under a microscope for direct observation, and images were taken. The cell area data was calculated using Image J software. […]

[2] = tested on: Models of Heart Failure due to Pressure Overload of Mice; assay: Pharmacodynamic test in mouse models of heart failure due to pressure overload (thoracic aorta ligation); type: in vivo, C57BL/6 mice; conditions: after four weeks of administration (nine weeks of modeling); for Ejection Fraction (Mean) of Ventriculus Sinister of Heart: Table 5, model group 28.6%; for Ejection Fraction (Mean) of Ventriculus Sinister of Heart / Ejection Fraction (Mean) of Heart: 5 mg/kg intraperitoneal once a day for four consecutive weeks; for effect on the cardiac contractile function (result in words): 5 mg/kg intraperitoneal once a day; for Ejection Fraction (Mean) of Heart: Table 6, model group 29.8%
Experimental: 1.1 Animals healthy C57BL/6 mice
Modeling by thoracic aorta ligation surgery: preoperative echocardiography was performed to exclude mice with abnormal cardiac functions; for mice with normal cardiac functions, anesthesia was performed, and the mice were anesthetized and then transferred into a small animal operating table and fixed; an open airway was established via endotracheal intubation, and anesthesia was maintained; taking the second rib as the center, the skin was cut along the sternum toward the first and third ribs to expose the connection between the second rib and the sternum; the second rib was cut to expose the aorta thoracic segment; the aortic arch was freed, a thin thread was inserted underneath, a thin needle was placed in parallel to the aortic arch for co-ligation; after ligation, the thin needle was withdrawn to observe the condition of the mice, and the mice were sutured layer by layer after stabilization; the mice were placed on the thermal insulation pad to keep warm, and after waking up, the mice were put back into the cage for daily feeding according to the activity.
After five weeks of modeling, echocardiography was performed on the mice to determine the ejection fractions of the hearts of the mice. When the ejection fraction decreased by about 50%, the ejection fraction met the experimental requirements, and the administration experiment started. Animals were grouped randomly and administered according to the ultrasound data, the echocardiography was performed every two weeks until week 9 ended, and pathological section analysis was performed.
The results were expressed using mean±standard error, data analysis was performed using GraphPad Prism statistical software, and the comparison was analyzed using a t-test. P < 0.05 was determined that there was a difference with statistical significance, otherwise P was determined that there was no significant difference.

[3] = tested on: myosin heavy chain β (β-MHC); conditions: 48 h, 10 µM
Experimental: Separation and plating of cardiomyocytes of rats: a certain number of SPF suckling rats were taken and placed in a clean bench according to an actual requirement for the number of cells, thoracic cavities were opened by scissors, hearts were separated, and the hearts were cut into tissue fragments with sterilized surgical scissors; Collagenase Type II (manufacturer: Sigma, article No.: C2-28-100MG) was added to a D-HANKS balanced salt buffer to prepare a 5 µg/mL enzyme digestion solution, and the tissue fragments of hearts were continuously digested for three times in a 37 °C constant-temperature water bath box; about 2 mL of the enzyme digestion solution was added for the first time, a supernatant was discarded after digestion, centrifugation and precipitation of cardiomyocytes and tissue fragments, about 4 mL of the enzyme digestion solution was independently added for the second time and the third time to continue digestion, a supernatant was remained each time, DMEM containing 10% FBS with the same volume as the digestion solution in the supernatant was immediately added to neutralize digestive enzymes, the supernatants for the second time and the third time were combined and centrifuged, a supernatant was discarded, an appropriate amount of DMEM containing 10% FBS was added to resuspend the cardiomyocytes, the cardiomyocytes were inoculated in a 100 mm culture plate and subjected to differential adhesion in a constant-temperature cell incubator for 2 h, and a supernatant was taken for cell count.
A 24-well plate precoated with 1% gelatin was taken and plated at 1×10^5 cells/well, 500 µL of a 10% FBS+DMEM medium was contained in each well, and cells were cultured in a 37 °C constant-temperature cell incubator for 24 h. Different compounds were independently prepared into a 100 mM mother liquor with DMSO and gradient diluted with a 10% FBS+DMEM medium to prepare a 10 µM final solution of the compound containing 0.5% DMSO. The medium in the 24-well plate was discarded and replaced with a 500 µL/well medium containing a 10 µM compound, and three replicate wells and a negative control well were set for each compound. After 0.5 hours of drug action, PE (manufacturer: Meilun Biotechnology; article No.: MB1602) with a final concentration of 20 µM was added to each well, and no PE was added to the negative control wells; after 48 hours of PE action, sample detection was performed.
Expression levels of genes related to cardiomyocyte hypertrophy was analyzed via real-time quantitative PCR detection of mRNA level of atrial natriuretic peptide (ANP) and myosin heavy chain β (β-MHC). The steps include extraction of total RNA of cells, reverse transcription synthesis of cDNA and real-time quantitative PCR assay.
Based on real-time quantitative PCR detection of an mRNA level of ANP of cardiomyocytes, a drug with a potential of anti-cardiomyocyte hypertrophy was preliminarily screened and verified with an mRNA level of another hypertrophy gene β-MHC using a statistical method One-way ANOVA and statistical software GraphPad Prism.

Row | SMILES | Cell Area Hypertrophy Multiple (Mean±Standard Deviation) Compared with Control Wells [1] | Ejection Fraction (Mean) of Ventriculus Sinister of Heart [2] [%] | Mean (real-time quantitative PCR validation results of cardiomyocyte β-MHC) [3] | cardiomyocyte area compared with the PE group (result in words) [1] | effect on the cardiac contractile function (result in words) [2] | Ejection Fraction (Mean) of Heart [2] [%]
1 | Cc1nc2cc(-c3cc(F)ccc3O)ccc2[nH]1 [Formula I-1, 4-fluoro-2-(2-methyl-1H-benzimidazol-5-yl)phenol] | 1.42±0.16 | 37.2 | 1.21 | – | – | –
2 | Cc1nc2cc(-c3cc(F)cc(F)c3O)ccc2[nH]1 [Formula I-2, 2,4-difluoro-6-(2-methyl-1H-benzimidazol-5-yl)phenol] | 1.18±0.16 | 38.3 | 1.21 | – | – | –
3 | Cc1nc2cc(-c3cc(F)cc(C#N)c3O)ccc2[nH]1 [Formula I-3, 5-fluoro-2-hydroxy-3-(2-methyl-1H-benzimidazol-5-yl)benzonitrile] | 1.07±0.15 | 37.8 | 1.24 | – | – | –
4 | Cc1nc2cc(-c3cc(C(N)=O)ccc3O)ccc2[nH]1 [Formula I-4, 4-hydroxy-3-(2-methyl-1H-benzimidazol-5-yl)benzamide] | 1.27±0.34 | 35.4 | 1.15 | – | – | –
5 | Cc1nc2cc(-c3cc(C(N)=O)cc(F)c3O)ccc2[nH]1 [Formula I-5, 3-fluoro-4-hydroxy-5-(2-methyl-1H-benzimidazol-5-yl)benzamide] | 1.50±0.15 | 39.7 | 1.25 | – | – | –
6 | Oc1ccc(F)cc1-c1ccc2[nH]cnc2c1 [Formula I-24, 4-fluoro-2-(1H-benzimidazol-5-yl)phenol] | 1.36±0.12 | 40.0 | – | – | – | –
7 | COc1ccc(F)cc1-c1ccc2[nH]cnc2c1 [Formula I-24-A, 5-(5-fluoro-2-methoxyphenyl)-1H-benzimidazole, reference compound] | 1.77±0.11 | 29.4 | – | no apparent improvement effect | no apparent improvement effect | –
8 | Cn1cnc2cc(-c3cc(F)ccc3O)ccc21 [Formula I-24-B, 4-fluoro-2-(1-methyl-1H-benzimidazol-5-yl)phenol, reference compound] | 1.81±0.20 | 27.2 | – | no apparent improvement effect | no apparent improvement effect | –
9 | Oc1ccccc1-c1cc(F)c2[nH]cnc2c1 [Formula I-24-C, 2-(7-fluoro-1H-benzimidazol-5-yl)phenol, reference compound] | 1.95±0.08 | 30.7 | – | no apparent improvement effect | no apparent improvement effect | –
10 | Cc1nc2cc(-c3cc(C(=O)O)ccc3O)ccc2[nH]1 [Formula I-48, 4-hydroxy-3-(2-methyl-1H-benzimidazol-5-yl)benzoic acid] | 1.06±0.08 | 37.2 | 1.58 | – | – | –
11 | Cc1nc2cc(-c3cc(F)ccc3C(C)(C)O)ccc2[nH]1 [Formula II-1, 2-(4-fluoro-2-(2-methyl-1H-benzimidazol-5-yl)phenyl)propane-2-ol] | 1.39±0.30 | – | 1.32 | – | – | 38.7
12 | Cc1nc2cc(-c3cc(F)cc(F)c3C(C)(C)O)ccc2[nH]1 [Formula II-2, 2-(2,4-difluoro-6-(2-methyl-1H-benzimidazol-5-yl)phenyl)propane-2-ol] | 1.33±0.11 | – | 1.42 | – | – | 37.3
13 | Cc1nc2cc(-c3cc(F)cc(C#N)c3C(C)(C)O)ccc2[nH]1 [Formula II-3, 5-fluoro-2-(2-hydroxypropan-2-yl)-3-(2-methyl-1H-benzimidazol-5-yl)benzonitrile] | 1.28±0.10 | – | 1.28 | – | – | 40.1
14 | Cc1nc2cc(-c3cc(C(=O)N(C)C)ccc3C(C)(C)O)ccc2[nH]1 [Formula II-7, 4-(2-hydroxypropan-2-yl)-N,N-dimethyl-3-(2-methyl-1H-benzimidazol-5-yl)benzamide] | 1.14±0.14 | – | 1.15 | – | – | 39.6
15 | CCCc1cc(C#N)c(C(C)(C)O)c(-c2ccc3nc[nH]c3c2)c1 [Formula II-48] | 1.07±0.20 | – | – | – | – | 41.4
16 | CC(O)c1ccc(F)cc1-c1ccc2[nH]cnc2c1 (stereo not drawn) [Formula II-73, 1-(4-fluoro-2-(1H-benzimidazol-5-yl)phenyl)ethane-1-ol] | 1.17±0.16 | – | – | – | – | 40.5
17 | CCCc1cc(C#N)c(C(C)O)c(-c2ccc3[nH]cnc3c2)c1 (stereo not drawn) [Formula II-96, 2-(1-hydroxyethyl)-3-(1H-benzimidazol-5-yl)-5-propylbenzonitrile] | 1.49±0.10 | – | 1.38 | – | – | 36.8
18 | OCc1ccc(F)cc1-c1ccc2[nH]cnc2c1 [Formula II-121, (4-fluoro-2-(1H-benzimidazol-5-yl)phenyl)methanol] | 1.48±0.09 | – | 1.25 | – | – | 42.2
19 | CCCc1cc(C#N)c(CO)c(-c2ccc3[nH]cnc3c2)c1 [Formula II-144, 2-(hydroxymethyl)-3-(1H-benzimidazol-5-yl)-5-propylbenzonitrile] | 1.12±0.13 | – | 1.39 | – | – | 41.5
